Measurements taken from patent publication US8728977B2, “Herbicidal combinations comprising tefuryltrione for use in rice crops” (Bayer Cropscience AG, priority 2009, dated 2014).
Read-outs that look alike come from different tables or passages of the source.

Test system: LEFCH (Leptochloa chinensis)
Test: Post-emergence action against LEFCH (greenhouse pot test, visual evaluation)
Format: in vivo
Conditions: for pest or weed control at 50 g/ha: read-out: Action against LEFCH
Experimental: The herbicidal activity of the active substances or active substance mixtures was evaluated visually from the treated variants in comparison with untreated control variants. In this connection, damage to and development of all plant parts above ground was included. The evaluation was carried out according to a percentage scale (100% action=all plants dead; 50% action=50% of the plants and green plant parts dead; 0% action=no recognizable action=as untreated control plot).
Seeds or root pieces of mono- and dicotyledonous weeds are placed in sandy clay soil in pots, covered with earth and secured in a greenhouse under good growing conditions (temperature, air humidity, water supply). Approximately three weeks after sowing, the test plants are treated with the compositions according to the invention. The compositions according to the invention formulated as wettable powders or as emulsion concentrates are sprayed, in spray application, on to the green plant parts in different dosages with a water application rate of 600 to 800 I/ha (corrected). Immediately up to a few days after application, the test receptacles accumulate water over the ground surface by up to 30 mm. With the water application (submerged application), on the other hand, the ground in the closed test receptacle is already covered with the paddy water up to 30 mm at the time of the application. The formulated active substances are here added directly to the paddy water. After an exposure time of the test plants in the greenhouse of an additional 3 to 4 weeks under optimum growing conditions, the effect of the preparations is evaluated visually in comparison with untreated controls. […] In this connection, actions of the combinations according to the invention which exceed the formal sum of the actions of the herbicides when applied individually are frequently observed. The values observed for the tests show, with suitable low dosages, an action of the combinations which lies above the expected values according to Colby.
If the observed activity values already exceed the formal sum of the values for the tests with individual applications, then they likewise exceed the expected value according to Colby, which is calculated according to the following formula and is likewise regarded as an indication of synergy (cf. S. R. Colby in Weeds, 15 (1967), pp. 20 to 22):
[formula] In this connection: • A, B=action of the component A or B in percent at a dosage of a or b grams ai/ha. • E=expected value in % at a dosage of a+b grams ai/ha.
The abbreviation LEFCH is the harmful plant Leptochloa chinensis.

[1] = dosage 2.5 g/ha, single herbicide
[2] = dosage 12.5 g/ha, single herbicide
[3] = dosage 50 g/ha, single herbicide
[4] = dosage 75 g/ha, single herbicide
[5] = Dinebra chinensis, dosage 50 g/ha, single herbicide

## COCC(=O)OC(c1ncccc1S(=O)(=O)NC(=O)Nc1nc(OC)cc(OC)n1)C(C)F (stereo not shown) [Compound B6, flucetosulfuron]
[1]
  Action against LEFCH: 20%

## Cc1nn(C)c(O)c1C(=O)c1ccc(C(F)(F)F)cc1S(C)(=O)=O [Compound B14, pyrasulfotole]
[2]
  Action against LEFCH: 30%

## COc1cc(OC)nc(NC(=O)NS(=O)(=O)Nc2ccccc2C(=O)N(C)C)n1 [Compound B9, orthosulfamuron]
Dosage 30 g/ha, single herbicide
  Action against LEFCH: 40%

## Nc1cc(Cl)nc(C(=O)O)c1Cl [Compound B2, aminopyralid]
Dosage 7.5 g/ha, single herbicide
  Action against LEFCH: 30%

## COc1cnc(OC)n2nc(NS(=O)(=O)c3c(OCC(F)F)cccc3C(F)(F)F)nc12 [Compound B10, penoxsulam]
Dinebra chinensis, dosage 15 g/ha, single herbicide
  pest or weed control at 15 g/ha: 20%

## Cc1ccc2c(c1)[C@H](Nc1nc(N)nc(C(C)F)n1)[C@@H](C)C2 (stereo partly shown) [Compound B5, indaziflam]
[1]
  Action against LEFCH: 25%

## COC(=O)c1nc(-c2ccc(Cl)c(OC)c2F)cc(N)c1Cl [Compound B22, methyl 4-amino-3-chloro-6-(4-chloro-2-fluoro-3-methoxyphenyl)pyridine-2-carboxylate]
Dinebra chinensis
  pest or weed control at 50 g/ha: 10%

## CC(C)N(C)S(=O)(=O)NC(=O)c1cc(-n2c(=O)cc(C(F)(F)F)n(C)c2=O)c(F)cc1Cl [Compound B19, saflufenacil]
Dinebra chinensis, dosage 3 g/ha, single herbicide
  pest or weed control at 3 g/ha: 8%

## COCCOCc1nc(C(F)(F)F)ccc1C(=O)C1C(=O)C2CCC(C2)C1=O (stereo not shown) [Compound B23, 3-({2-[(2-methoxyethoxy)methyl]-6-(trifluoromethyl)pyridin-3-yl}-carbonyl)bicyclo[3.2.1]octane-2,4-dione]
Dinebra chinensis, dosage 12.5 g/ha, single herbicide
  pest or weed control at 12.5 g/ha: 25%

## COCc1cccc(C(O)c2nc(OC)cc(OC)n2)c1NS(=O)(=O)C(F)F (stereo not shown) [Compound B15, pyrimisulfan]
[3]
  Action against LEFCH: 20%

## C[C@@H](Oc1ccc(Oc2nc3ccc(Cl)cc3o2)cc1)C(=O)N(C)c1ccccc1F [Compound B8, metamifop]
[4]
  Action against LEFCH: 15%

## CC(C)c1nn(C(=O)NC(C)(C)C)c(=O)n1N [Compound B1, amicarbazone]
[2]
  Action against LEFCH: 10%

## CCc1cc(C)cc(CC)c1-c1c(OC(=O)C(C)(C)C)n2n(c1=O)CCOCC2 [Compound B11, pinoxaden]
Dinebra chinensis, dosage 10 g/ha, single herbicide
  pest or weed control at 10 g/ha: 15%

## CC(C)N(C(=O)n1cnn(-c2ccc(Cl)cc2Cl)c1=O)c1ccc(F)cc1F [Compound B7, ipfencarbazone]
[3]
  Action against LEFCH: 25%

## COc1cc(OC)n2nc(NS(=O)(=O)c3c(C(F)(F)F)ccnc3OC)nc2n1 [Compound B18, pyroxsulam]
Dosage 15 g/ha, single herbicide
  Action against LEFCH: 20%

## CS(=O)(=O)c1ccc(C(=O)C2C(=O)CCCC2=O)c(Cl)c1COCC1CCCO1 (stereo not shown) [tefuryltrione]
[3]
  Action against LEFCH: 20%

## COC(=O)c1nc(C2CC2)nc(N)c1Cl [Compound B3, aminocyclopyrachlor-methyl]
[3]
  Action against LEFCH: 10%

## COc1cc(OC)nc(NC(=O)NS(=O)(=O)c2c(C3=NOCC(C)O3)c(Cl)nn2C)n1 (stereo not shown) [Compound B20, 3-chloro-N-[(4,6-dimethoxypyrimidin-2-yl)carbamoyl]-1-methyl-4-(5-methyl-5,6-dihydro-1,4,2-dioxazin-3-yl)-1H-pyrazole-5-sulfonamide]
[5]
  pest or weed control at 50 g/ha: 15%

## CCCc1ccc2nc(Cl)c(S(=O)(=O)NC(=O)Nc3nc(OC)cc(OC)n3)n2n1 [Compound B12, propyrisulfuron]
[3]
  Action against LEFCH: 30%

## C#CCN(C)c1c(C#N)cnn1-c1nn2c(c1Cl)CCCC2 [Compound B13, pyraclonil]
[4]
  Action against LEFCH: 30%

## COc1cc(OC)nc(NC(=O)NS(=O)(=O)Nc2ccccc2C(=O)C2CC2)n1 [Compound B4, cyclosulfamuron]
[5]
  pest or weed control at 50 g/ha: 20%

## Cn1nc(C(F)(F)F)c(CS(=O)(=O)C2=NOC(C)(C)C2)c1OC(F)F [Compound B17, pyroxasulfone]
Dinebra chinensis, dosage 7.5 g/ha, single herbicide
  pest or weed control at 7.5 g/ha: 15%
